Source: US4937242A, “1,4-dihydropyridine derivatives and pharmaceutical composition thereof” (Kyoto Pharmaceutical Industries, Ltd., priority 1987, dated 1990)
Converted amounts (≈) assume the structure as drawn. Structures can show the parent of a compound that is named as a salt.

Experiments:
Water solubility test = assay type: physicochemical; details: powdered, 20°±5° C., within 30 minutes, read-out: Amount (ml) of water required to dissolve 1 g of the subject compounds (converted)
Experimental: The subject compounds (indicated by the example number), after being powdered, were placed in water and vigorously shaken at 20°±5° C. for 30 seconds a 5-minute intervals, and within 30 minutes, the amount of water required to dissolve 1 g of the compound (I) of the present invention therein was measured.

[1] = test system: spontaneously hypertensive rats; assay: Hypotensive activity in male spontaneously hypertensive rats (oral); assay type: in vivo, rat; details: systolic pressure at tail vein, oral 10 mg/kg
Experimental: Hypotensive activity [Method] Male spontaneously hypertensive rats at the 12th to 16th week in age and presenting a systolic pressure of around 200 mmHg were used as experimental animals, and 3 to 8 animals were assigned to each group. The subject compound (indicated by the example number), in an aqueous solution or 5% gum arabic suspension, was orally administered in a dose of 10 mg/kg. At the 4th and 8th hours following the administration, the systolic pressure at tail vein of each rat was noninvasively measured by means of a sphygmomanometer (USM-105, Ueda Seisakusho, Japan). A group of rats administered the solvent alone was used as a control group.
Gum arabic or water was administered to rats of the control group.

Row | Structure (SMILES) | solubility at 0.5 h (Water solubility test) | Change in blood pressure, 4 hours after administration [1] | Change in blood pressure, 8 hours after administration [1]
1 | COC(=O)C1=C(C)NC(C)=C(C(=O)OCC(C)(C)CN2CCN(CCC#N)CC2)C1c1cccc([N+](=O)[O-])c1 (centres unmarked) [Example 14, 2,2-Dimethyl-3-[4-(2-cyanoethyl)-1-piperazinyl]propyl Methyl 1,4-Dihydro-2,6-dimethyl-4-(3-nitrophenyl)-3,5-pyridinedicarboxylateDihydrochloride] | 500 mg/mL | -43 mmHg | -88 mmHg
2 | CCOC(=O)CN1CCN(CC(C)(C)COC(=O)C2=C(C)NC(C)=C(C(=O)OC)C2c2cccc([N+](=O)[O-])c2)CC1 (centres unmarked) [Example 25] | 500 mg/mL (≈ 873 mM) |  | 
3 | C#CCN1CCN(CC(C)(C)COC(=O)C2=C(C)NC(C)=C(C(=O)OC)C2c2cccc([N+](=O)[O-])c2)CC1 (centres unmarked) [Example 12] | 500 mg/mL (≈ 953 mM) | -70 mmHg | -102 mmHg
4 | COC(=O)C1=C(C)NC(C)=C(C(=O)OCC(C)(C)CN2CCN(C(=O)C=Cc3ccccc3)CC2)C1c1cccc([N+](=O)[O-])c1 (centres unmarked) [Example 7] |  | -76 mmHg | -84 mmHg
5 | C=CCN1CCN(CC(C)(C)COC(=O)C2=C(C)NC(C)=C(C(=O)OC)C2c2cccc([N+](=O)[O-])c2)CC1.Cl.Cl (centres unmarked) [Example 2, 3-(4-allyl-1-piperazinyl)-2,2-dimethylpropyl methyl 2,6-dimethyl-4-(m-nitrophenyl)-1,4-dihydropyridine-3,5-dicarboxylate dihydrochloride] | 500 mg/mL | -81 mmHg | -104 mmHg
6 | CNC(=O)CN1CCN(CC(C)(C)COC(=O)C2=C(C)NC(C)=C(C(=O)OC)C2c2cccc([N+](=O)[O-])c2)CC1 (centres unmarked) [Example 27] | 500 mg/mL (≈ 897 mM) | -83 mmHg | -60 mmHg
7 | C=C(C)CN1CCN(CC(C)(C)COC(=O)C2=C(C)NC(C)=C(C(=O)OC)C2c2cccc([N+](=O)[O-])c2)CC1 (centres unmarked) [Example 17] | 312 mg/mL (≈ 578 mM) | -112 mmHg | -107 mmHg
8 | COC(=O)C1=C(C)NC(C)=C(C(=O)OCC(C)(C)CN2CCN(C(=O)c3ccccc3)CC2)C1c1cccc([N+](=O)[O-])c1.Cl (centres unmarked) [Example 6, 2,2-Dimethyl-3-(4-benzoyl-1-piperazinyl)propyl Methyl 1,4-Dihydro-2,6-dimethyl-4-(3-nitrophenyl)-3,5-pyridinedicarboxylate Hydrochloride] |  | -64 mmHg | -88 mmHg
9 | COC(=O)C1=C(C)NC(C)=C(C(=O)OCC(C)(C)CN2CCN(CC(=O)N3CCCC3)CC2)C1c1cccc([N+](=O)[O-])c1 (centres unmarked) [Example 26] | 500 mg/mL (≈ 837 mM) | -53 mmHg | -32 mmHg
10 | COC(=O)C1=C(C)NC(C)=C(C(=O)OCCN(C)Cc2ccccc2)C1c1cccc([N+](=O)[O-])c1 (centres unmarked) [Nicardipine, nicardipine, reference compound] | 6.25 mg/mL (≈ 13 mM) | -29 mmHg | -22 mmHg
11 | COC(=O)C1=C(C)NC(C)=C(C(=O)OCC(C)(C)CN2CCN(C(C)=O)CC2)C1c1cccc([N+](=O)[O-])c1 (centres unmarked) [Example 8] |  | -56 mmHg | -90 mmHg
12 | COC(=O)C1=C(C)NC(C)=C(C(=O)OCC(C)(C)CN2CCN(CCO[N+](=O)[O-])CC2)C1c1cccc([N+](=O)[O-])c1 (centres unmarked) [Example 24] | 500 mg/mL (≈ 869 mM) | -91 mmHg | -69 mmHg
13 | COC(=O)C1=C(C)NC(C)=C(C(=O)OCC(C)(C)CN2CCN(CC=Cc3ccccc3)CC2)C1c1cccc([N+](=O)[O-])c1.Cl.Cl (centres unmarked) [Example 13, 2,2-Dimethyl-3-(4-cinnamyl-1-piperazinyl)propyl Methyl 1,4-Dihydro-2,6-dimethyl-4-(3-nitrophenyl)-3,5-pyridinedicarboxylate Dihydrochloride] |  | -69 mmHg | -77 mmHg
14 | C#CCCCN1CCN(CC(C)(C)COC(=O)C2=C(C)NC(C)=C(C(=O)OC)C2c2cccc([N+](=O)[O-])c2)CC1.Cl.Cl (centres unmarked) [Example 21, 2,2-Dimethyl-3-[4-(4-pentynyl)-1-piperazinyl]propyl Methyl 1,4-Dihydro-2,6-dimethyl-4-(3-nitrophenyl)-3,5-pyridinedicarboxylate Dihydrochloride] | 500 mg/mL | -112 mmHg | -98 mmHg
15 | CC=CCN1CCN(CC(C)(C)COC(=O)C2=C(C)NC(C)=C(C(=O)OC)C2c2cccc([N+](=O)[O-])c2)CC1.Cl.Cl (centres unmarked) [Example 20, 2,2-Dimethyl-3-[4-(2-butenyl)-1-piperazinyl]propyl Methyl 1,4-Dihydro-2,6-dimethyl-4-(3-nitrophenyl)-3,5-pyridinedicarboxylate Dihydrochloride] | 625 mg/mL | -84 mmHg | -82 mmHg
16 | COC(=O)C1=C(C)NC(C)=C(C(=O)OCC(C)(C)CN2CCN(C(=O)Cc3ccccc3)CC2)C1c1cccc([N+](=O)[O-])c1 (centres unmarked) [Example 5] |  | -90 mmHg | -87 mmHg
17 | COC(=O)C1=C(C)NC(C)=C(C(=O)OCC(C)(C)CN2CCN(C(C)C(C)=O)CC2)C1c1cccc([N+](=O)[O-])c1 (centres unmarked) [Example 19] | 500 mg/mL (≈ 898 mM) | -86 mmHg | -85 mmHg
18 | COC(=O)C1=C(C)NC(C)=C(C(=O)OCC(C)(C)CN2CCN(CCN3CCCCC3)CC2)C1c1cccc([N+](=O)[O-])c1 (centres unmarked) [Example 16] | 500 mg/mL (≈ 836 mM) | -34 mmHg | -52 mmHg
19 | COC(=O)C1=C(C)NC(C)=C(C(=O)OCC(C)(C)CN2CCN(CC#N)CC2)C1c1cccc([N+](=O)[O-])c1.Cl.Cl (centres unmarked) [Example 23, 3-(4-Cyanomethyl-1-piperazinyl)-2,2-dimethylpropyl methyl 2,6-dimethyl-4-(m-nitrophenyl)-1,4-dihydropyridine-3,5-dicarboxylate dihydrochloride] | 500 mg/mL | -104 mmHg | -82 mmHg
20 | COC(=O)C1=C(C)NC(C)=C(C(=O)OCC(C)(C)CN2CCN(CCO)CC2)C1c1cccc([N+](=O)[O-])c1 (centres unmarked) [Example 15, 2,2-Dimethyl-3-[4-(2-hydroxyethyl)-1-piperazinyl]propyl Methyl 1,4-Dihydro-2,6-dimethyl-4-(3-nitrophenyl)-3,5-pyridinedicarboxylateDihydrochloride] | 500 mg/mL | -52 mmHg | -47 mmHg
